Experimental findings from patent US20230414609A1, “USES OF ORAI1-SPECIFIC CALCIUM CHANNELS IN TREATMENT OF ORAL CANCER” (New York University, priority 2022, published 2023) are described below.

Assay [1] relates to MMP1 gene expression in HSC-3 cells. Description: qRT-PCR of MMP1 gene expression in HSC-3 cells. Format: cell-based, human. The procedure: (D) is a schematic of the Boyden chambers and solutions used to quantify cell invasion. DOK cells overexpressing ORAI1 (O1) and STIM1 (S1) were seeded in the top chamber with 2% FBS. Media in the bottom chamber contained 10% FBS.
The role of ORAI1 in oral cancer progression was further elucidated by examining the expression of oncogenes in oral cancer, such as MMP1^9,27, as a proof of concept. We first verified the expression of MMP1 in HaCaT, DOK and HSC-3 cells by qRT-PCR analysis. All cells expressed MMP1 in the order oral cancer HSC-3 cells>dysplastic DOK cells>HaCaT cells (FIG. 2A). We next stimulated HSC-3 cells using different concentrations of CPA to examine changes in MMP1 gene expression mediated by SOCE activation. […] These findings were further supported by the decrease in the expression of MMP1 seen in HSC-3 cells with ORAI1 knockdown or deletion. Because in many cells SOCE activation targets the phosphorylation of the transcription factor NFAT (nuclear factor of activated T cells) and its downstream effectors ^28, and because a previous study implicated NFAT in regulating stemness in oral cancer cells ^16, we next interrogated if the transcriptional up-regulation of MMP1 was downstream of NFAT. We first verified the expression of NFAT isoforms (NFAT1-4) in HaCaT, DOK and HSC-3 cells by qRT-PCR analysis showing that NFAT4 (coded by NFATc3) was the most abundant transcript.
A general note: Quantitative PCR measures a nucleic acid by following its amplification.

Assay [2] addresses T1, TRPV1 (Homo sapiens, UniProt Q8NER1).
T1 construct: Stimulation of transient receptor channels TRPM7, TRPA1 and TRPV1 in HSC-3 cells; endogenous in cells; host or cells: HSC-3 (human oral squamous cell carcinoma)
Description: Stimulation of TRPV1 in HSC-3 cells, cytosolic Ca2+. The assay is classed as cell-based. As to conditions: TRPV1 agonist, in the presence of Ca2+.

Assay [3] has as its target T2, TRPM7 (Homo sapiens, UniProt Q96QT4).
T2 construct: Stimulation of transient receptor channels TRPM7, TRPA1 and TRPV1 in HSC-3 cells; endogenous in cells; host or cells: HSC-3 (human oral squamous cell carcinoma)
Nature of the assay: Stimulation of TRPM7 in HSC-3 cells, cytosolic Ca2+. Format: cell-based. The note with it: TRPM7 agonist, in the presence of Ca2+. From the text: (§1) To investigate SOCE in oral cancer cells, we first used qRT-PCR analysis to analyze the expression of ORAI1-3 in the human oral squamous cell carcinoma (OSCC) cell lines HSC-3 and SCC-9, in the dysplastic oral keratinocytes DOK cells, and in spontaneously transformed normal keratinocytes HaCaT cells. […] Next, we tested whether these cells had functional SOCE by stimulating them with cyclopiazonic acid (CPA), a reversible blocker of the sarco-endoplasmic reticulum Ca^2+ ATPase (SERCA) pump that passively depletes the ER Ca^2+ stores inducing STIM1/ORAI1 coupling and SOCE activation ^22,23. […] We also examined the contribution of other channels that have been implicated in Ca^2+ influx in various cancer cells.

Assay [4] relates to SOCE in HSC-3 cells. Nature of the assay: SOCE ([Ca2+]cyto) after CPA stimulation in HSC-3 cells. The assay is classed as cell-based, human. As to conditions: in the presence of the blocker. The protocol:
FIG. 1: (A) Heatmap contrast of average variance stabilizing transformation (VST) of ORAI1, ORAI2 and ORAI3 genes between normal (control: N=3 samples) and tongue cancer patients (N=10 samples). Statistical significance was analyzed using the Benjamini-Hochberg FDR (5%) and fold change of 1.5. Both FDR values and fold change were generated using DESeq2. (B-D) show haematoxylin and eosin (H&E) staining (left) and immunofluorescence staining of ORAI1 (right) in the boxed areas of tongue tissue sections showing normal (B), dysplastic (C) and invasive tumor (D) phenotypes. Nuclear staining by 4′,6-diamidino-2-phenylindole (DAPI) is shown in blue. Scale bar, 200 μm. […] (H) and (J) show qRT-PCR analyses of ORAI1 gene expression by the 2^−ΔΔCT method comparing control (scrambled shRNA) and shORAI1 (ORAI1 KD) HSC-3 cells (H) or CRISPR/Cas9 ORAI1 (ORAI1 KO) (J). (I) and (K) show [Ca^2+]cyto measurements comparing control HSC-3 cells compared to shORAI1 (ORAI1 KD) (I) or compared to CRISPR/Cas9 ORAI1 (ORAI1 KO) (K) (left). Quantification of SOCE corrected for baseline Ca^2+ levels as Δpeak (F−F0) (right). (L) and (M) show cell proliferation measured using MTS comparing control HSC-3 cells compared to shORAI1 (ORAI1 KD) (L) or compared to CRISPR/Cas9 ORAI1 (ORAI1 KO) (M). […]

In assay [5] the test system is HSC-3 cells. Description: Bulk RNA-seq of CPA stimulated HSC-3 cells. Format: cell-based, human.
For assay [6], the system named is HSC-3 cells. Nature of the assay: Cell proliferation, colorimetric assay MTS. Format: cell-based, human. The procedure:
FIG. 1: (A) Heatmap contrast of average variance stabilizing transformation (VST) of ORAI1, ORAI2 and ORAI3 genes between normal (control: N=3 samples) and tongue cancer patients (N=10 samples). Statistical significance was analyzed using the Benjamini-Hochberg FDR (5%) and fold change of 1.5. Both FDR values and fold change were generated using DESeq2. (B-D) show haematoxylin and eosin (H&E) staining (left) and immunofluorescence staining of ORAI1 (right) in the boxed areas of tongue tissue sections showing normal (B), dysplastic (C) and invasive tumor (D) phenotypes. Nuclear staining by 4′,6-diamidino-2-phenylindole (DAPI) is shown in blue. Scale bar, 200 μm. […] Quantification of SOCE corrected for baseline Ca^2+ levels as Δpeak (F−F0) (right). (L) and (M) show cell proliferation measured using MTS comparing control HSC-3 cells compared to shORAI1 (ORAI1 KD) (L) or compared to CRISPR/Cas9 ORAI1 (ORAI1 KO) (M).
To address the role of SOCE in key cancer hallmarks such as cell proliferation in oral cancer, we used two independent approaches to eliminate ORAI1 expression in HSC-3 cells. […] To address the effects of ORAI1 in cell proliferation, we analyzed HSC-3 cells in the presence of synta-66 and in which ORAI1 expression had been reduced by shORAI1 or CRISPR/Cas9 editing using the colorimetric assay MTS (FIG. 1, L and M).

Assay [7] deals with SOCE in SCC-9 cells. Nature of the assay: SOCE ([Ca2+]cyto) after CPA stimulation in SCC-9 cells. Format: cell-based, human. As to conditions: in the presence of the blocker.
Excerpt: as §1

Molecules are shown by their SMILES. “Also recorded” adds a separate entry of the source.

T2 sequence (Q96QT4 whole entry): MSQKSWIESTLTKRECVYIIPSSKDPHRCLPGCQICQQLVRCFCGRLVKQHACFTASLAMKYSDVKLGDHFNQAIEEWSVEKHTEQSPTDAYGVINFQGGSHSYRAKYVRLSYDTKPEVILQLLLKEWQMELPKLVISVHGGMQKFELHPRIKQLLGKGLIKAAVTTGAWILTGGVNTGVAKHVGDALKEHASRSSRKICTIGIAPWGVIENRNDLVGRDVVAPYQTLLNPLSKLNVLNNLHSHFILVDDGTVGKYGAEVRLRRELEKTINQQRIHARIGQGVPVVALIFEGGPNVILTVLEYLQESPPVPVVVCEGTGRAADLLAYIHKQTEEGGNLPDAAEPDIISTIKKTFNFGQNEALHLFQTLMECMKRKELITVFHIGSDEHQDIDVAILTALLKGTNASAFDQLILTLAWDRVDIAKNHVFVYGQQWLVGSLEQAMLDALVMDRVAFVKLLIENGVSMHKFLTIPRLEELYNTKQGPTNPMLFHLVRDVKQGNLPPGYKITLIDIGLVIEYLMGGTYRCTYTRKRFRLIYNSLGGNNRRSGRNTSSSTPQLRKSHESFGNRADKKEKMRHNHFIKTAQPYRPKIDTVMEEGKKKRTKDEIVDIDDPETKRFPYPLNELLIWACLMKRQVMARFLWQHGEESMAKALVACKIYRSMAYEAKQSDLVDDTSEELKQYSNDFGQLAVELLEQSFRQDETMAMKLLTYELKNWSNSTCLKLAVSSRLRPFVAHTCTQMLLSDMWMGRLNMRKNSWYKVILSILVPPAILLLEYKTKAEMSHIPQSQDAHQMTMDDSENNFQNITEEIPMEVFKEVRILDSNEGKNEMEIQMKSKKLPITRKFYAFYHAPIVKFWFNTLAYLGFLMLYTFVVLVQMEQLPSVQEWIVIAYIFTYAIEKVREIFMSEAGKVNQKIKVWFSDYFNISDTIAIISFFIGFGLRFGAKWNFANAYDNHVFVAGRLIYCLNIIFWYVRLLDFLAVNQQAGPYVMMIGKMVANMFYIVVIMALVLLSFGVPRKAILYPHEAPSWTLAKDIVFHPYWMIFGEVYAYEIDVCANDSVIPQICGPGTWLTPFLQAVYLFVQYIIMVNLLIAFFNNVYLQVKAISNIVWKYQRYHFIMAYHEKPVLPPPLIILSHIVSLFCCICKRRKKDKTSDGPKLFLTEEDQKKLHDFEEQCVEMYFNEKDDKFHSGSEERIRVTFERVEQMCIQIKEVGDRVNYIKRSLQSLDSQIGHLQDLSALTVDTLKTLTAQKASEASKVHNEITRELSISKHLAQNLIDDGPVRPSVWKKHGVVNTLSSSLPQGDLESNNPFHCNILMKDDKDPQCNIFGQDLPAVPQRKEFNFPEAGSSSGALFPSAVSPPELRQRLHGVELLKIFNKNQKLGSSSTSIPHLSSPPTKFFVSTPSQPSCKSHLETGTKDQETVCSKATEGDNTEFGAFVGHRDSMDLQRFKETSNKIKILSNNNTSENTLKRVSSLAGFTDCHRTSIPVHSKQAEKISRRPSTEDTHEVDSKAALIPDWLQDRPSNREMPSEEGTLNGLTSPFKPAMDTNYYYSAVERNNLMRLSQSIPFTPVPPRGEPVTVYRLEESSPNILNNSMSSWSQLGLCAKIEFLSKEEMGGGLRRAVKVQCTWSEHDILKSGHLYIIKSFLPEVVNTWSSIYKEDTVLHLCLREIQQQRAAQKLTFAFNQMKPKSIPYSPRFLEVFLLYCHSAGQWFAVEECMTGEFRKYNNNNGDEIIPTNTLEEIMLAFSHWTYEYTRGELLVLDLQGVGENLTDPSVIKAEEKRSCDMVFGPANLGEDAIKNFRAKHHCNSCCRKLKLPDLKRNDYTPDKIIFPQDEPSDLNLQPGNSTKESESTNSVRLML
T1 sequence (Q8NER1 whole entry): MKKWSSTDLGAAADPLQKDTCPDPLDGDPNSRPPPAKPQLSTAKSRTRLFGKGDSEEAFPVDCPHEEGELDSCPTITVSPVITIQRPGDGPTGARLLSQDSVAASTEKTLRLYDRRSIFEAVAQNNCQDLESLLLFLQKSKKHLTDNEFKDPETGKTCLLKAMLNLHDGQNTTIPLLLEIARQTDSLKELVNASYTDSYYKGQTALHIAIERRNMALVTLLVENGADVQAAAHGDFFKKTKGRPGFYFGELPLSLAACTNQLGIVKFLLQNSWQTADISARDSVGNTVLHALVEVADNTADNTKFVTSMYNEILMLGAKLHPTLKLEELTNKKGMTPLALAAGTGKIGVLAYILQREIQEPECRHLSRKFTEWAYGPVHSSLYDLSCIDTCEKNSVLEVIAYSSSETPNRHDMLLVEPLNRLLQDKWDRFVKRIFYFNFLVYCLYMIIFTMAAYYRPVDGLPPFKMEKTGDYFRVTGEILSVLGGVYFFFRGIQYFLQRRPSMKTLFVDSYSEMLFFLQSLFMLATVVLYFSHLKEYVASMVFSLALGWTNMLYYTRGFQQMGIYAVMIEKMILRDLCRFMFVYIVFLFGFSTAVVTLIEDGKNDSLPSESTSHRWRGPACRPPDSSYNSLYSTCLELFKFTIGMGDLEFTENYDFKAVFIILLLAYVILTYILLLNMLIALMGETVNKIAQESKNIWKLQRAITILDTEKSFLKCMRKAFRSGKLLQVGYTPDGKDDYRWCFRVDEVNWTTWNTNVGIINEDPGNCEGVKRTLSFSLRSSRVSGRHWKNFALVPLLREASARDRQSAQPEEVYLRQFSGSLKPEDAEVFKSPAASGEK

For `CC(=O)C1=C(O)[C@@H]2[C@H]3c4c[nH]c5cccc(c45)C[C@H]3C(C)(C)N2C1=O` [CPA, cyclopiazonic acid], in assay [1] (HSC-3 cells, CPA stimulation), the “time of maximal effect on MMP1 gene expression” value was 3 h.
On to `COc1cc(CNC(=O)CCCC/C=C/C(C)C)ccc1O` [capsaicin], for which the “increase in cytosolic Ca2+” value in assay [2] is listed as “failed to evoke an increase”.
`Oc1ccc2c3c1O[C@H]1c4oc5ccccc5c4C[C@@]4(O)[C@@H](C2)N(CC2CC2)CC[C@]314` [naltriben]: the “increase in cytosolic Ca2+” value in assay [3] was “failed to evoke an increase”.
On to `COc1ccc(OC)c(-c2ccc(NC(=O)c3ccncc3F)cc2)c1` [synta-66], for which the SOCE result in assay [4] was “significantly reduced; also recorded: abolished”; in assay [7] it was “significantly reduced”. For the same molecule, the “mRNA level of pain modulators (VEGF-A, B and C, NGF, TLR2, PTGS2)” value in assay [5] was “down-regulated”. Besides, the “number of MMP genes significantly down-regulated” value in assay [5] (out of >21 genes in the MMP family, FDR<0.05) was 8. The “proliferation compared to control cells” value in assay [6] was “significantly decreased”. Moreover, the “effect on the CPA-elicited increase in MMP1 gene expression” value in assay [1] (HSC-3 cells stimulated with CPA) is “attenuated the increase”.
